Reference: the supplement of paper PMC4862054
Values joined by “and” are separate entries in the source; they are usually repeats but may differ in a detail not shown here. Equal entries are not always repeated. Blank lines part the entries; values can stand above or below the compound they belong to.

How the values were obtained:
BT-474 [1] = conditions: 72 h
In short: (§1)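 EC50 was fitted from dose-response curves and censored at the highest concentration tested. To build those curves, breast cancer cell lines (20 µl suspension) were seeded into 384-well plates containing compound at 5 concentrations in 10-fold steps over a compound-specific 10,000-fold range and incubated for 72 h. Readouts were CellTox Green fluorescence (485/520 nm) for cell death and then CellTiter-Glo luminescence for viability, with each plate normalised to 0.1 % DMSO and a positive kill control.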

HDQ-P1 [2] = conditions: 72 h
In short: as §1

MDA-MB-468 [3] = conditions: 72 h
In short: as §1

BT-549 = assay: normalised viability (% of control), CellTiter-Blue; higher = more viable cells (about 100 = DMSO control); conditions: incubation time: 72 h
In short: (§2)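 Vehicle (100) and a positive kill control (0) anchored the normalisation of each plate, and Z'-factor was used for quality control. Breast cancer cell lines in 20 µl suspension were incubated 72 h over compound in 5 µl medium in 384-well plates, followed by CellTiter-Blue at 560/590 nm. The value is normalised viability at a single listed concentration of the series.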

MDA-MB-453 = assay: as above; conditions: incubation time: 72 h
In short: as §2

CAL-148 = assay: as above; conditions: incubation time: 72 h
In short: as §2

MFM-223 = assay: as above; conditions: incubation time: 72 h
In short: as §2

CAL-85-1 = assay: as above; conditions: incubation time: 72 h
In short: as §2

HCC1599 = assay: as above; conditions: incubation time: 72 h
In short: as §2

BT-474 [4] = assay: as above; conditions: incubation time: 72 h
In short: as §2

MDA-MB-231 = assay: as above; conditions: incubation time: 72 h
In short: as §2

HCC1143 = assay: as above; conditions: incubation time: 72 h
In short: as §2

HDQ-P1 [5] = assay: as above; conditions: incubation time: 72 h
In short: as §2

SK-BR-3 = assay: as above; conditions: incubation time: 72 h
In short: as §2

Hs578T = assay: as above; conditions: incubation time: 72 h
In short: as §2

MDA-MB-468 [6] = assay: as above; conditions: incubation time: 72 h
In short: as §2

MDA-MB-436 = assay: as above; conditions: incubation time: 72 h
In short: as §2

CAL-120 = assay: as above; conditions: incubation time: 72 h
In short: as §2

CAL-51 = assay: as above; conditions: incubation time: 72 h
In short: as §2

HCC1937 = assay: as above; conditions: incubation time: 72 h
In short: as §2

DU-4475 = assay: as above; conditions: incubation time: 72 h
In short: as §2

- EC50, CellTiter-Glo (BT-474 [1]): 2290 nM
- EC50, CellTiter-Glo (MDA-MB-468 [3]): 574 nM
SMILES: Nc1ncn([C@@H]2O[C@H](CO)[C@@H](O)[C@H]2O)c(=O)n1 [Azacitidine]
- EC50, CellTiter-Glo (HDQ-P1 [2]): 2470 nM
- normalised viability (BT-549; 10 nM): 115%
- normalised viability (BT-549; 1000 nM): 95.4%
- normalised viability (BT-549; 10000 nM): 48.7%
- normalised viability (MDA-MB-453; 3 nM): 104%
- normalised viability (MDA-MB-453; 30 nM): 109%
- normalised viability (MDA-MB-453; 100 nM): 102%
- normalised viability (CAL-148; 3 nM): 83.8%
- normalised viability (CAL-148; 30 nM): 85.2%
- normalised viability (CAL-148; 100 nM): 89.3%
- normalised viability (MFM-223; 10 nM): 100%
- normalised viability (MFM-223; 1000 nM): 95.5%
- normalised viability (MFM-223; 10000 nM): 59.4%
- normalised viability (CAL-85-1; 3 nM): 98.5%
- normalised viability (CAL-85-1; 30 nM): 97.8%
- normalised viability (CAL-85-1; 100 nM): 92.6%
- normalised viability (HCC1599; 10 nM): 111%
- normalised viability (HCC1599; 1000 nM): 72.8%
- normalised viability (HCC1599; 10000 nM): 88.4%
- normalised viability (BT-474 [4]; 10 nM): 104%
- normalised viability (BT-474 [4]; 1000 nM): 102%
- normalised viability (BT-474 [4]; 10000 nM): 95%
- normalised viability (MDA-MB-231; 10 nM): 81.1%
- normalised viability (MDA-MB-231; 1000 nM): 85.4%
- normalised viability (MDA-MB-231; 10000 nM): 69.9%
- normalised viability (HCC1143; 10 nM): 72.6%
- normalised viability (HCC1143; 1000 nM): 83.8%
- normalised viability (HCC1143; 10000 nM): 62.3%
- normalised viability (HDQ-P1 [5]; 3 nM): 141%
- normalised viability (HDQ-P1 [5]; 30 nM): 104%
- normalised viability (HDQ-P1 [5]; 100 nM): 96%
- normalised viability (SK-BR-3; 10 nM): 92%
- normalised viability (SK-BR-3; 1000 nM): 106%
- normalised viability (SK-BR-3; 10000 nM): 66.6%
- normalised viability (Hs578T; 10 nM): 98.4%
- normalised viability (Hs578T; 1000 nM): 90.2%
- normalised viability (Hs578T; 10000 nM): 36%
- normalised viability (MDA-MB-468 [6]; 10 nM): 110%
- normalised viability (MDA-MB-468 [6]; 1000 nM): 40.7%
- normalised viability (MDA-MB-468 [6]; 10000 nM): 20.9%
- normalised viability (MDA-MB-436; 10 nM): 114%
- normalised viability (MDA-MB-436; 1000 nM): 86.3%
- normalised viability (MDA-MB-436; 10000 nM): 70.3%
- normalised viability (CAL-120; 10 nM): 80.9%
- normalised viability (CAL-120; 1000 nM): 88.9%
- normalised viability (CAL-120; 10000 nM): 60.9%
- normalised viability (CAL-51; 3 nM): 102%
- normalised viability (CAL-51; 30 nM): 104%
- normalised viability (CAL-51; 100 nM): 104%
- normalised viability (HCC1937; 10 nM): 94%
- normalised viability (HCC1937; 1000 nM): 74.4%
- normalised viability (HCC1937; 10000 nM): 56.9%
- normalised viability (DU-4475; 3 nM): 97.2%
- normalised viability (DU-4475; 30 nM): 116%
- normalised viability (DU-4475; 100 nM): 117%

- EC50, CellTiter-Glo (MDA-MB-468 [3]): 815 nM
SMILES: CC(=O)N(O)CCCCCNC(=O)CCC(=O)N(O)CCCCCNC(=O)CCC(=O)N(O)CCCCCN [Deferoxamine]
- EC50, CellTiter-Glo (HDQ-P1 [2]): 1850 nM

- EC50, CellTiter-Glo (BT-474 [1]): 7.47 nM
- EC50, CellTiter-Glo (MDA-MB-468 [3]): 0.68 nM
SMILES: CC(=O)O[C@@]12CO[C@@H]1C[C@H](O)[C@@]1(C)C(=O)[C@H](O)C3=C(C)[C@@H](OC(=O)[C@H](O)[C@@H](NC(=O)OC(C)(C)C)c4ccccc4)C[C@@](O)([C@@H](OC(=O)c4ccccc4)[C@H]21)C3(C)C [Docetaxel]
- EC50, CellTiter-Glo (HDQ-P1 [2]): 2.08 nM
- normalised viability (BT-549; 1 nM): 64.5% and 58.7%
- normalised viability (BT-549; 100 nM): 24.3% and 19%
- normalised viability (BT-549; 1000 nM): 24.4% and 20.3%
- normalised viability (MDA-MB-453; 0.3 nM): 121% and 107%
- normalised viability (MDA-MB-453; 3 nM): 48.1% and 57.8%
- normalised viability (MDA-MB-453; 10 nM): 39.6% and 31.9%
- normalised viability (CAL-148; 0.3 nM): 97.3% and 89.1%
- normalised viability (CAL-148; 3 nM): 41.6% and 29.8%
- normalised viability (CAL-148; 10 nM): 21.9% and 19.9%
- normalised viability (MFM-223; 1 nM): 84.9% and 81.8%
- normalised viability (MFM-223; 100 nM): 43.6% and 47.1%
- normalised viability (MFM-223; 1000 nM): 47.8% and 41.5%
- normalised viability (CAL-85-1; 0.3 nM): 96.7% and 101%
- normalised viability (CAL-85-1; 3 nM): 56% and 56.9%
- normalised viability (CAL-85-1; 10 nM): 36.1% and 35.2%
- normalised viability (HCC1599; 1 nM): 134% and 119%
- normalised viability (HCC1599; 100 nM): 101% and 94.3%
- normalised viability (HCC1599; 1000 nM): 104% and 99.7%
- normalised viability (BT-474 [4]; 1 nM): 91.6% and 101%
- normalised viability (BT-474 [4]; 100 nM): 21.4% and 27.7%
- normalised viability (BT-474 [4]; 1000 nM): 16.9% and 28.5%
- normalised viability (MDA-MB-231; 1 nM): 83% and 72.7%
- normalised viability (MDA-MB-231; 100 nM): 17% and 21.6%
- normalised viability (MDA-MB-231; 1000 nM): 21.6% and 21%
- normalised viability (HCC1143; 1 nM): 79.8% and 66.2%
- normalised viability (HCC1143; 100 nM): 34.7% and 31.3%
- normalised viability (HCC1143; 1000 nM): 35.3% and 33%
- normalised viability (HDQ-P1 [5]; 0.3 nM): 86.7% and 84.7%
- normalised viability (HDQ-P1 [5]; 3 nM): 58.6% and 72.4%
- normalised viability (SK-BR-3; 1 nM): 85.7% and 86.8%
- normalised viability (SK-BR-3; 100 nM): 19% and 14.4%
- normalised viability (SK-BR-3; 1000 nM): 18.3% and 14.1%
- normalised viability (Hs578T; 1 nM): 69% and 63.9%
- normalised viability (Hs578T; 100 nM): 11.7% and 12.4%
- normalised viability (Hs578T; 1000 nM): 12.3% and 9.74%
- normalised viability (MDA-MB-468 [6]; 1 nM): 69.7% and 68.9%
- normalised viability (MDA-MB-468 [6]; 100 nM): 53% and 46.7%
- normalised viability (MDA-MB-468 [6]; 1000 nM): 46.3% and 52.4%
- normalised viability (MDA-MB-436; 1 nM): 85% and 80.1%
- normalised viability (MDA-MB-436; 100 nM): 19.3% and 34%
- normalised viability (MDA-MB-436; 1000 nM): 38.6% and 43.8%
- normalised viability (CAL-120; 1 nM): 84.9% and 81.7%
- normalised viability (CAL-120; 100 nM): 25% and 23.5%
- normalised viability (CAL-120; 1000 nM): 25.8% and 23.3%
- normalised viability (CAL-51; 0.3 nM): 112% and 93.8%
- normalised viability (CAL-51; 3 nM): 67.8% and 60.9%
- normalised viability (CAL-51; 10 nM): 45.5% and 33.4%
- normalised viability (HCC1937; 1 nM): 53.9% and 76.2%
- normalised viability (HCC1937; 100 nM): 20.5% and 17.5%
- normalised viability (HCC1937; 1000 nM): 27.5% and 19%
- normalised viability (DU-4475; 0.3 nM): 116% and 110%
- normalised viability (DU-4475; 3 nM): 50.8% and 35.1%
- normalised viability (DU-4475; 10 nM): 34.5% and 35.6%
